Measurements reported in patent US12502391B2, “Multi-kinase inhibitors of VEGF and TGF beta and uses thereof” (AIVIVA BIOPHARMA, INC., priority 2018, dated 2025).
Where two headings read alike, the source gives them in different places.

Assays:
[1] = tested on: TGF-β1 mRNA; assay: TGF-β1 mRNA expression (qPCR) in skin of LL-37-challenged mice; type: in vivo; details: single intradermal injection 1.6 mg
Experimental: (§1) In our study, mice were injected subcutaneously with 40 μl of LL-37 (3.3 mg/mL) to induce inflammatory reactions. Immediately following the LL-37 injection, axitinib, nintedanib, sunitinib, or lenvatinib were individually administered as a single intradermal injection (1.6 mg). LL-37 injection was repeated every 12 hours for a total of 4 injections. Endotoxin-free water and dexamethasone (3 mg/kg by intraperitoneal injection, twice), respectively, were used as negative and positive control groups.
(§2) Mice were then anaesthetized, and tissue samples of lesion sites were excised and fixed for H&E stainings and immunohistochemical analysis. Markers for inflammation (CD4 and CD8) were determined using specific antibodies. TGF beta levels are measured by mRNA expression using qPCR.
The TGFb1 mRNA expression in mice induced with LL37 and treated with lenvatinib was 79% of that challenged with LL37 alone (i.e., without treatment).

[2] = tested on: LL37-induced inflammation; assay: Histopathology (inflammation, CD4+ and CD8+ lymphocyte scores) in LL37-induced dermal inflammation model; type: in vivo; details: mice, single intradermal injection 1.6 mg, LL-37 challenge, 48 hours
Experimental: as §1
At 48 hours after the initial LL-37 injection, the dorsal skin was photographed, and the severity of skin lesions were scored for redness and measured for areas of involvement.
as §2
The tissue samples were analyzed for inflammation characteristics. Histopathology endpoints included inflammation, and CD4+ and CD8+T-lymphocyte immunostaining. For inflammation scores, tissues were examined histologically and scored for inflammatory cell infiltrate.

[3] = tested on: subretinal fibrosis; assay: Laser-induced subretinal fibrosis model in mice; type: in vivo, C57BL/6 mice; details: for effect on subretinal fibrosis: approximately 1 μL intravitreally on day of laser application, Days 15 and 35; for neovascular lesion sizes: approximately 1 μL of 1% (w/w) intravitreally on day of laser application
Experimental: The anti-fibrotic effects of test compounds were also evaluated in a subretinal fibrosis model in C57BL/6 mice. Three to five lesions were generated in the Bruch's membrane of the study eye using laser photocoagulation (75-μm spot size, 0.1-s duration, 90 mW, OcuLight TX 532 nm). Subretinal fibrosis started to form 5-7 days post laser application. Test compounds having certain spectrum of multikinase inhibition activities or vehicle were intravitreally injected on the day of laser application. The dosing concentration of the test compounds was 1% (w/w) of nintedanib and lenvatinib. The control groups were vehicle and mouse VEGF164 antibody. There were 12 mice per treatment group. Approximately, 1 μL each of the test compounds, vehicle, or positive control was injected intravitreally to the right eye of each animal. On Days 15 and 35, the eyes were examined with fluorescein angiography, followed by enucleation. Immunostaining on the dissected choroid was used to assess subretinal fibrosis (e.g., collagen 1, isolectin B4 and/or DAPI). The primary antibodies used were fluorescence conjugated isolectin B4 (FITC-conjugated isolectin B4) and anti-collagen type I antibody. […] Thus, these compounds can be used to treat subretinal fibrosis associated with proliferative retinal diseases.

[4] = tested on: benign prostate hyperplasia; assay: Testosterone and phenylephrine induced benign prostate hyperplasia in rats; type: in vivo, Wistar rats; set-up: key to epithelial hyperplasia score, dorsolateral prostate, representative image / epithelial hyperplasia score, ventral prostate, representative image: severity grade 0 = not present to 5 = severe; details: TE and PE induced rats; for epithelial hyperplasia score, dorsolateral prostate, representative image / epithelial hyperplasia score, ventral prostate, representative image: intra-prostate injection 0.4 ml on days 1 and 18 (1% w/w; doxazosin mesylate 0.5%), severity grade 0 (not present) through 5 (severe), induced vehicle score=4; for glandular hyperplasia compared to untreated TE/PE induced prostates: intra-prostate injection on days 1 and 18
Experimental: BPH is a true hyperplastic process. Histologic studies have documented an increase in cell number. A study was conducted, therefore, to determine the effects of test compounds and vehicle on testosterone (TE) and phenylephrine (PE) induced benign prostate hyperplasia in rats. Male Wistar rats were induced with testosterone (2 mg/kg) plus phenylephrine (5 mg/kg) administered daily by subcutaneous injection on days 5 through 32. Vehicle or test compounds (all at 1% w/w), nintedanib, sunitinib, lenvatinib, and 0.5% doxazosin mesylate, were administered by intra-prostate injection (0.4 ml) in dorsolateral and ventral lobes on days 1 and 18. Animals were euthanized on day 32. Body weights were determined and prostate glands were harvested. The experimental design is outlined in Table 6.
At necropsy, the ventral and dorsolateral lobes of the prostate were separated and then cut into halves. The left halves were fixed in 10% neutral buffered formalin, sectioned, and stained with Hematoxylin and Eosin (H&E). Histological changes in these sections were scored. Epithelial hyperplasia was recognized as an increase in epithelial cells within normal-appearing gland profiles, primarily reflected by stratification of epithelial cells and increased presence of epithelial tufting and papillary projections. A severity grade of 0 (not present) through 5 (severe) was assigned to each sample.

[5] = Ocular tissue and plasma distribution after topical ocular instillation (LC-MS/MS); type: in vivo, New Zealand White rabbits; details: male, New Zealand White, rabbit
Experimental: The objective of this study was to assess the local tolerance and ocular distribution of sorafenib and lenvatinib (0.3% w/w) when administered by topical ocular instillation in the eyes. Five to six male New Zealand White rabbits were used per treatment group. Each right eye received a 35 μL eyedrop of the vehicle, sorafenib (0.3% w/w), or lenvatinib (0.3% w/w) three times daily for 5 days. On Dosing Day 5, the animals were sacrificed and eyes were enucleated, and plasma and the ocular tissues were collected. Tissue and plasma concentrations of the compounds were measured by LC-MS/MS.

[6] = tested on: rabbit ear hypertrophic scar; assay: Histopathology of rabbit ear wounds (neovascularization, fibrosis, re-epithelization); type: in vivo, New Zealand white rabbits; set-up: key to Total Score, Treated Mean: aggregate of neovascularization, fibrosis, re-epithelization grades; key to Neovascularization score, Treated Mean / Fibrosis/Collagen score, Treated Mean / Re-epithelization score, Treated Mean: five-step severity grade: minimal, mild, moderate, marked, severe; details: rabbit ear wound, intradermal dosing of 1 wt. %; for Total Score, Treated Mean: aggregation of microscopic findings; for Fibrosis/Collagen score, Treated Mean / Neovascularization score, Treated Mean / Re-epithelization score, Treated Mean: five-step severity grading (minimal to severe)
Experimental: In New Zealand white rabbits, maintained under a surgical plane of anesthesia, trauma stimulation of the skin on the ventral surface of both ears is initiated on Day 1. Trauma sites are evaluated on Days 8, 15, 22, 29, 36, and 43. On days 15 and 29, each site is dosed with test compounds (e.g., 1% w/w, 100 μl) by intradermal or intralesional injections.
At necropsy, each treatment site was harvested and preserved for hematoxylin and […] and Mason's trichrome stainings. Each lesion was examined histologically and graded for neovascularization, fibrosis and re-epithelization using a five-step/severity grading system (minimal, mild, moderate, marked, and severe). The average total score is an aggregation of these microscopic findings relating to an inflammatory response.

Compound: COc1cc2nccc(Oc3ccc(NC(=O)NC4CC4)c(Cl)c3)c2cc1C(N)=O [lenvatinib]
- TGF-β1 mRNA expression among all treatment groups ([1]; LL-37 challenge): lowest TGF-β1 mRNA expression
- TGFb1 mRNA expression relative to LL37 alone (without treatment) ([1]; LL-37 every 12 hours x4, 48 hours after initial LL-37 injection): 79%
- scores of inflammation (inflammatory cell infiltrate), words [2]: prominent reductions
- effect on subretinal fibrosis [3]: therapeutic effects in the treatment of subretinal fibrosis
- neovascular lesion sizes [3]: marked reductions in neovascular lesion sizes
- epithelial hyperplasia score, dorsolateral prostate, representative image [4]: 2
- epithelial hyperplasia score, ventral prostate, representative image [4]: 3
- glandular hyperplasia compared to untreated TE/PE induced prostates [4]: demonstrated reduction of glandular hyperplasia
- concentration at 5 day of dosing ([5]; in vivo, Ocular tissue concentration, Aqueous Humor, Mean): 5.49 ng/g
- concentration at 5 day of dosing ([5]; in vivo, Ocular tissue concentration, Choroid, Mean): 38 ng/g
- concentration at 5 day of dosing ([5]; in vivo, Ocular tissue concentration, Conjunctiva, Mean): 300 ng/g
- concentration at 5 day of dosing ([5]; in vivo, Ocular tissue concentration, Cornea, Mean): 178 ng/g
- concentration at 5 day of dosing ([5]; in vivo, Ocular tissue concentration, Iris Ciliary Body, Mean): 18.2 ng/g
- concentration at 5 day of dosing ([5]; in vivo, Ocular tissue concentration, Retina, Mean): 23.5 ng/g
- concentration at 5 day of dosing ([5]; in vivo, Ocular tissue concentration, Sclera, Mean): 49 ng/g
- concentration at 5 day of dosing ([5]; in vivo, Ocular tissue concentration, Vitreous Humor, Mean): 0.619 ng/g
- concentration at 5 day of dosing ([5]; in vivo, plasma concentration, mean (±SD)): 131 ng/mL

Compound: COC(=O)c1ccc2c(c1)NC(=O)/C2=C(\Nc1ccc(N(C)C(=O)CN2CCN(C)CC2)cc1)c1ccccc1 [nintedanib]
- scores of inflammation (inflammatory cell infiltrate), words [2]: prominent reductions
- effect on subretinal fibrosis [3]: therapeutic effects in the treatment of subretinal fibrosis
- neovascular lesion sizes [3]: marked reductions in neovascular lesion sizes
- angiogenesis/neovascularization and fibrosis by histopathology versus untreated wounds (words) [6]: decreased angiogenesis and fibrosis
- average total score of test wounds, fold lower than untreated wounds [6]: about 1.33 fold
- Total Score, Treated Mean [6]: 4.5
- Fibrosis/Collagen score, Treated Mean [6]: 3
- Neovascularization score, Treated Mean [6]: 1
- Re-epithelization score, Treated Mean [6]: 0.5
- angiogenesis/neovascularization and fibrosis by histopathology versus untreated wounds (words) ([6]; listed as Nintedanib): much less neovascularization and about the same fibrosis as untreated wounds
- epithelial hyperplasia score, dorsolateral prostate, representative image [4]: 3
- epithelial hyperplasia score, ventral prostate, representative image [4]: 3
- glandular hyperplasia compared to untreated TE/PE induced prostates [4]: demonstrated reduction of glandular hyperplasia

Compound: CNC(=O)c1cc(Oc2ccc(NC(=O)Nc3ccc(Cl)c(C(F)(F)F)c3)cc2)ccn1 [sorafenib]
- angiogenesis/neovascularization and fibrosis by histopathology versus untreated wounds (words) [6]: do not show any reduction in angiogenesis
- Total Score, Treated Mean [6]: 5.8
- Fibrosis/Collagen score, Treated Mean [6]: 2.5
- Neovascularization score, Treated Mean [6]: 3
- Re-epithelization score, Treated Mean [6]: 0.3
- angiogenesis/neovascularization and fibrosis by histopathology versus untreated wounds (words) ([6]; listed as Sorafenib): slightly increased neovascularization, and similar or slightly increased fibrosis
- concentration at 5 day of dosing ([5]; aqueous humor, topical, 0.3 % w/w (35 μL eyedrop), rabbit eyes, topical instillation of 0.3% three times daily for five days, N=6, read-out: Ocular tissue concentration, Aqueous Humor, Mean): 0 ng/g
- concentration at 5 day of dosing ([5]; choroid, topical, 0.3 % w/w (35 μL eyedrop), rabbit eyes, topical instillation of 0.3% three times daily for five days, N=6, read-out: Ocular tissue concentration, Choroid, Mean): 8.19 ng/g
- concentration at 5 day of dosing ([5]; conjunctiva, topical, 0.3 % w/w (35 μL eyedrop), rabbit eyes, topical instillation of 0.3% three times daily for five days, N=6, read-out: Ocular tissue concentration, Conjunctiva, Mean): 860 ng/g
- concentration at 5 day of dosing ([5]; cornea, topical, 0.3 % w/w (35 μL eyedrop), rabbit eyes, topical instillation of 0.3% three times daily for five days, N=6, read-out: Ocular tissue concentration, Cornea, Mean): 131 ng/g
- concentration at 5 day of dosing ([5]; iris ciliary body, topical, 0.3 % w/w (35 μL eyedrop), rabbit eyes, topical instillation of 0.3% three times daily for five days, N=6, read-out: Ocular tissue concentration, Iris Ciliary Body, Mean): 3.34 ng/g
- concentration at 5 day of dosing ([5]; plasma, topical, 0.3 % w/w (35 μL eyedrop), 0.3% w/w eyedrop 35 μL three times daily, Day 5 of dosing, read-out: plasma concentration, mean (±SD)): 5.09 ng/mL
- concentration at 5 day of dosing ([5]; retina, topical, 0.3 % w/w (35 μL eyedrop), rabbit eyes, topical instillation of 0.3% three times daily for five days, N=6, read-out: Ocular tissue concentration, Retina, Mean): 17.4 ng/g
- concentration at 5 day of dosing ([5]; sclera, topical, 0.3 % w/w (35 μL eyedrop), rabbit eyes, topical instillation of 0.3% three times daily for five days, N=6, read-out: Ocular tissue concentration, Sclera, Mean): 16.4 ng/g
- concentration at 5 day of dosing ([5]; vitreous humor, topical, 0.3 % w/w (35 μL eyedrop), rabbit eyes, topical instillation of 0.3% three times daily for five days, N=6, read-out: Ocular tissue concentration, Vitreous Humor, Mean): 0.11 ng/g
